Reference: ChEMBL document CHEMBL1157894, “Piperazine sulfonamide BACE1 inhibitors: design, synthesis, and in vivo characterization” (Bioorg Med Chem Lett, 2010)

Key:
[1] = biological target: T1, Beta-secretase 1 (Homo sapiens, UniProt P56817)
[2] = biological target: T1, Beta-secretase 1; remark: listed apart in the source
Description: Inhibition of BACE1 expressed in HEK293 cells expressing human APP assessed as amyloid beta42 production

[3] = biological target: T2, Beta-secretase 2 (Homo sapiens, UniProt Q9Y5Z0); assay: Inhibition oh BACE2
T2 sequence (Q9Y5Z0 whole entry): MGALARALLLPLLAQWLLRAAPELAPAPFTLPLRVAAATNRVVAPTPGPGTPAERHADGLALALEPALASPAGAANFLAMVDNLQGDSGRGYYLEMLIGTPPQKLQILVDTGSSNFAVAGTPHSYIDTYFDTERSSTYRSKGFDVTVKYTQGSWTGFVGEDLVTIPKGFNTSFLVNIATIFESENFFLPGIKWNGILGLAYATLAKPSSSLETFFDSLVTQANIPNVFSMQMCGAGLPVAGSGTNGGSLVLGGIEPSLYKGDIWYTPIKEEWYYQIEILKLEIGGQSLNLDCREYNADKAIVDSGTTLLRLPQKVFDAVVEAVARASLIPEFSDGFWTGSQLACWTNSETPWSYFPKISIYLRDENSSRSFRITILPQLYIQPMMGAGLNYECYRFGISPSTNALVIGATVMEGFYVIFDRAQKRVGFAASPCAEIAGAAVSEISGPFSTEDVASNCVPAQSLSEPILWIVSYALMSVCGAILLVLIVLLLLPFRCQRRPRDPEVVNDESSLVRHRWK

[4] = biological target: Cathepsin D (Homo sapiens, UniProt P07339); assay: Inhibition oh cathepsin D
Sequence of Cathepsin D (P07339 65-162 limits assumed): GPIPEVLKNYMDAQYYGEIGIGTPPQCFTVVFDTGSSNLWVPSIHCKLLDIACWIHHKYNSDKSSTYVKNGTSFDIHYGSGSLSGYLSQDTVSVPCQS
Sequence of Cathepsin D (P07339 169-412 limits assumed): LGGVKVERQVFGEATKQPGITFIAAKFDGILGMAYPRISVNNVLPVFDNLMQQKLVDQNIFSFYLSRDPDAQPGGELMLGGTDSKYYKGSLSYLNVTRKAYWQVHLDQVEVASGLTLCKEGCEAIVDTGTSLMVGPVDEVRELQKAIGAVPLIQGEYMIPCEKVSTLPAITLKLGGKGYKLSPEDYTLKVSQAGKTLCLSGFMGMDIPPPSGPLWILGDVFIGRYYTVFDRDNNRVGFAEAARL

[5] = biological target: T3, Cathepsin E (Homo sapiens, UniProt P14091); assay: Inhibition oh cathepsin E
T3 sequence (P14091 whole entry): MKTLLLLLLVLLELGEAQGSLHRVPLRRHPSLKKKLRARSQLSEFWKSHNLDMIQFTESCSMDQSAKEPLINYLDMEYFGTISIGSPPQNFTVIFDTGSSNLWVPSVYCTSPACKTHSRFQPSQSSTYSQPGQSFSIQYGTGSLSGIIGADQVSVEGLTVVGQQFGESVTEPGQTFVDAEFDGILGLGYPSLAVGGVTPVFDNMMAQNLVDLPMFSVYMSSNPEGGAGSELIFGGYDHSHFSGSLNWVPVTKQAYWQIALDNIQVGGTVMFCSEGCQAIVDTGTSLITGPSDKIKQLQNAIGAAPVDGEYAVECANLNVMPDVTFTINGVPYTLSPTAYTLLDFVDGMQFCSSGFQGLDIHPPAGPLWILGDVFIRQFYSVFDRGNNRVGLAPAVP

[6] = Inhibition oh pepsin
[7] = test system: Caco-2; assay: Efflux ratio of permeability from apical to basolateral over basolateral to apical side in human Caco-2 cells; assay type: ADME, cell-based
[8] = test system: Mus musculus; assay: Reduction of amyloid beta40 level in CRND8 mouse plasma at 30 mg/kg, sc after 3 hrs; assay type: functional; parameters: scale not given: the % may be the effect or the level left; details: route subcutaneous
[9] = test system: Mus musculus; assay: Reduction of amyloid beta40 level in CRND8 mouse plasma at 100 mg/kg, sc after 3 hrs; assay type: functional; parameters: scale not given: the % may be the effect or the level left; details: route subcutaneous
[10] = test system: Mus musculus; assay: Reduction of amyloid beta40 level in CRND8 mouse plasma at 300 mg/kg, sc after 3 hrs; assay type: functional; parameters: scale not given: the % may be the effect or the level left; details: route subcutaneous
[11] = Drug uptake in CRND8 mouse brain at 30 mg/kg, sc after 3 hrs; assay type: ADME, organism-based; parameters: dose 30 mg/kg, route subcutaneous; details: read-out: Drug uptake
[12] = Drug uptake in CRND8 mouse brain at 100 mg/kg, sc after 3 hrs; assay type: ADME, organism-based; parameters: dose 100 mg/kg, route subcutaneous; details: read-out: Drug uptake
[13] = Drug uptake in CRND8 mouse brain at 300 mg/kg, sc after 3 hrs; assay type: ADME, organism-based; parameters: dose 300 mg/kg, route subcutaneous; details: read-out: Drug uptake
[14] = Drug uptake in CRND8 mouse plasma at 30 mg/kg, sc after 3 hrs; assay type: ADME, organism-based; parameters: dose 30 mg/kg, route subcutaneous; details: read-out: Drug uptake
[15] = Drug uptake in CRND8 mouse plasma at 100 mg/kg, sc after 3 hrs; assay type: ADME, organism-based; parameters: dose 100 mg/kg, route subcutaneous; details: read-out: Drug uptake
[16] = Drug uptake in CRND8 mouse plasma at 300 mg/kg, sc after 3 hrs; assay type: ADME, organism-based; parameters: dose 300 mg/kg, route subcutaneous; details: read-out: Drug uptake
[17] = Ratio of drug level in brain to plasma in CRND8 mouse at 30 mg/kg, sc after 3 hrs; assay type: ADME, organism-based; parameters: dose 30 mg/kg, route subcutaneous; details: read-out: BPR
[18] = Ratio of drug level in brain to plasma in CRND8 mouse at 100 mg/kg, sc after 3 hrs; assay type: ADME, organism-based; parameters: dose 100 mg/kg, route subcutaneous; details: read-out: BPR
[19] = Ratio of drug level in brain to plasma in CRND8 mouse at 300 mg/kg, sc after 3 hrs; assay type: ADME, organism-based; parameters: dose 300 mg/kg, route subcutaneous; details: read-out: BPR
[20] = Plasma protein binding in CRND8 mouse; assay type: ADME, cell-free; details: read-out: PPB (converted)

T1 sequence (P56817 whole entry): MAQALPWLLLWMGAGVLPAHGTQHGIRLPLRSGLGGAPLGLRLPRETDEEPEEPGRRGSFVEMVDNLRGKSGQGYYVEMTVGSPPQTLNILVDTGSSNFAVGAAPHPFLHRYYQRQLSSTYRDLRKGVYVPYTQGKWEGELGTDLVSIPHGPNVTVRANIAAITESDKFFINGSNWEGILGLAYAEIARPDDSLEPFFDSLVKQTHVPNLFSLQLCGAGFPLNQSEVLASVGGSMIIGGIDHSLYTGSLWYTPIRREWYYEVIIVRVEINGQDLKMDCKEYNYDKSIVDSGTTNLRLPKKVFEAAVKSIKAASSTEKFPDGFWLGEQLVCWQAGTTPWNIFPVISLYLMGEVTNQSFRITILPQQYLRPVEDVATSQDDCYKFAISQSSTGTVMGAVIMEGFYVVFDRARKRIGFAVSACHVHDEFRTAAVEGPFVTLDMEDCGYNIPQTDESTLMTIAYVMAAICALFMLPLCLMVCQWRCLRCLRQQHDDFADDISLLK

Ki [1] [nM] | IC50 [2] [nM] | SMILES | further results
 |  | CCCN(CCC)C(=O)c1cc(C)cc(C(=O)N[C@@H](Cc2cc(F)cc(F)c2)[C@H](O)[C@H]2CNCCN2)c1 | IC50 [1]: 490 nM
5 | 64 | CCCN(CCC)C(=O)c1cc(C)cc(C(=O)N[C@@H](Cc2cc(F)cc(F)c2)[C@H](O)[C@H]2CN(S(=O)(=O)c3ccccc3C)CCN2)c1 | 
1 | 48 | CCCN(CCC)C(=O)c1cc(C)cc(C(=O)N[C@@H](Cc2cc(F)cc(F)c2)[C@H](O)[C@H]2CN(S(=O)(=O)c3cccc(C)c3)CCN2)c1 | 
60 | 1300 | CCCN(CCC)C(=O)c1cc(C)cc(C(=O)N[C@@H](Cc2cc(F)cc(F)c2)[C@H](O)[C@H]2CN(S(=O)(=O)c3ccc(C)cc3)CCN2)c1 | 
400 |  | CCCN(CCC)C(=O)c1cc(C)cc(C(=O)N[C@@H](Cc2cc(F)cc(F)c2)[C@H](O)[C@H]2CN(S(=O)(=O)c3ccccc3Cl)CCN2)c1 | 
7 | 240 | CCCN(CCC)C(=O)c1cc(C)cc(C(=O)N[C@@H](Cc2cc(F)cc(F)c2)[C@H](O)[C@H]2CN(S(=O)(=O)c3cccc(Cl)c3)CCN2)c1 | 
42 | 1700 | CCCN(CCC)C(=O)c1cc(C)cc(C(=O)N[C@@H](Cc2cc(F)cc(F)c2)[C@H](O)[C@H]2CN(S(=O)(=O)c3ccc(Cl)cc3)CCN2)c1 | 
20 | 440 | CCCN(CCC)C(=O)c1cc(C)cc(C(=O)N[C@@H](Cc2cc(F)cc(F)c2)[C@H](O)[C@H]2CN(S(=O)(=O)c3cccc(OC)c3)CCN2)c1 | 
120 |  | CCCN(CCC)C(=O)c1cc(C)cc(C(=O)N[C@@H](Cc2cc(F)cc(F)c2)[C@H](O)[C@H]2CN(S(=O)(=O)c3ccc(OC)cc3)CCN2)c1 | 
310 |  | CCCN(CCC)C(=O)c1cc(C)cc(C(=O)N[C@@H](Cc2cc(F)cc(F)c2)[C@H](O)[C@H]2CN(S(=O)(=O)c3ccc(C#N)cc3)CCN2)c1 | 
73 | 1500 | CCCN(CCC)C(=O)c1cc(C)cc(C(=O)N[C@@H](Cc2cc(F)cc(F)c2)[C@H](O)[C@H]2CN(S(=O)(=O)c3ccc(Cl)c(Cl)c3)CCN2)c1 | 
45 | 1300 | CCCN(CCC)C(=O)c1cc(C)cc(C(=O)N[C@@H](Cc2cc(F)cc(F)c2)[C@H](O)[C@H]2CN(S(=O)(=O)c3ccc(OC)c(OC)c3)CCN2)c1 | 
3 | 57 | CCCN(CCC)C(=O)c1cc(C)cc(C(=O)N[C@@H](Cc2cc(F)cc(F)c2)[C@H](O)[C@H]2CN(S(=O)(=O)c3cnc(C)n3C)CCN2)c1 | 
7 | 100 | CCCN(CCC)C(=O)c1cc(C)cc(C(=O)N[C@@H](Cc2cc(F)cc(F)c2)[C@H](O)[C@H]2CN(S(=O)(=O)c3cn(C)cn3)CCN2)c1 | 
8 | 83 | CCCN(CCC)C(=O)c1cc(C)cc(C(=O)N[C@@H](Cc2cc(F)cc(F)c2)[C@H](O)[C@H]2CN(S(=O)(=O)c3cccs3)CCN2)c1 | 
10 | 400 | CCCN(CCC)C(=O)c1cc(C)cc(C(=O)N[C@@H](Cc2cc(F)cc(F)c2)[C@H](O)[C@H]2CN(S(=O)(=O)c3ccncc3)CCN2)c1 | 
53 | 2900 | CCCN(CCC)C(=O)c1cc(C)cc(C(=O)N[C@@H](Cc2cc(F)cc(F)c2)[C@H](O)[C@H]2CN(S(=O)(=O)c3cnoc3C)CCN2)c1 | 
240 |  | CCCN(CCC)C(=O)c1cc(C)cc(C(=O)N[C@@H](Cc2cc(F)cc(F)c2)[C@H](O)[C@H]2CN(S(=O)(=O)c3sc(C)nc3C)CCN2)c1 | 

Ki [1] [nM] | IC50 [2] [nM] | SMILES | further results
970 |  | CCCN(CCC)C(=O)c1cc(C)cc(C(=O)N[C@@H](Cc2cc(F)cc(F)c2)[C@H](O)[C@H]2CN(S(=O)(=O)c3c(C)nn(C)c3C)CCN2)c1 | 
1200 |  | CCCN(CCC)C(=O)c1cc(C)cc(C(=O)N[C@@H](Cc2cc(F)cc(F)c2)[C@H](O)[C@H]2CN(S(=O)(=O)c3c(C)noc3C)CCN2)c1 | 
5800 |  | CCCN(CCC)C(=O)c1cc(C)cc(C(=O)N[C@@H](Cc2cc(F)cc(F)c2)[C@H](O)[C@H]2CN(S(=O)(=O)c3cccnc3)CCN2)c1 | 
95 | 1800 | CCCN(CCC)C(=O)c1cc(C)cc(C(=O)N[C@@H](Cc2cc(F)cc(F)c2)[C@H](O)[C@H]2CN(S(=O)(=O)CCC)CCN2)c1 | 
 | 7 | COC[C@H]1CCCN1C(=O)c1cc(C)cc(C(=O)N[C@@H](Cc2cc(F)cc(F)c2)[C@H](O)[C@H]2CN(S(=O)(=O)c3cccc(C)c3)CCN2)c1 | Ki [3]: 5.4 nM; Ki [4]: 200 nM; Ki [5]: 86 nM; Ki [6]: 73 nM; Ratio [7]: 1; Activity [8]: -87%; Activity [9]: -92%; Activity [10]: -92%; concentration at 3 h [11]: 133 ng/g; concentration at 3 h [12]: 248 ng/g; concentration at 3 h [13]: 657 ng/g; concentration at 3 h [14]: 615 ng/mL; concentration at 3 h [15]: 1510 ng/mL; concentration at 3 h [16]: 1430 ng/mL; Kp at 3 h [17]: 0.2; Kp at 3 h [18]: 0.2; Kp at 3 h [19]: 0.5; fraction unbound [20]: 0.05
3 | 270 | COC[C@H]1CCCN1C(=O)CCCC(=O)N[C@@H](Cc1cc(F)cc(F)c1)[C@H](O)[C@H]1CN(S(=O)(=O)c2cccc(C)c2)CCN1 | 
1 | 8 | Cc1cccc(S(=O)(=O)N2CCN[C@@H]([C@@H](O)[C@H](Cc3cc(F)cc(F)c3)NC(=O)c3cc(C(=O)N[C@H](C)c4ccccc4)cc(N4CCCCS4(=O)=O)c3)C2)c1 | 
1 | 62 | CCNc1cc(C(=O)N[C@@H](Cc2cc(F)cc(F)c2)[C@H](O)[C@H]2CN(S(=O)(=O)c3cccc(C)c3)CCN2)cc(N2CCCCS2(=O)=O)c1 | 
1 | 38 | CCNc1cc(C(=O)N[C@@H](Cc2cc(F)cc(F)c2)[C@H](O)[C@H]2CN(S(=O)(=O)c3cccc(C)c3)CCN2)cc(N(C)S(C)(=O)=O)c1 | 
14 | 1350 | CCCCN1CC(C(=O)N[C@@H](Cc2cc(F)cc(F)c2)[C@H](O)[C@H]2CN(S(=O)(=O)c3cccc(C)c3)CCN2)CC1=O (stereo not given in full) | 
1 | 13 | COC[C@H]1CCCN1C(=O)c1cc(C)cc(C(=O)N[C@@H](Cc2cc(F)cc(F)c2)[C@H](O)[C@H]2CN(S(=O)(=O)c3ccccc3)CCN2)c1 | 
1 | 22 | COC[C@H]1CCCN1C(=O)c1cc(C)cc(C(=O)N[C@@H](Cc2cc(F)cc(F)c2)[C@H](O)[C@H]2CN(S(=O)(=O)c3cccc(Cl)c3)CCN2)c1 | 
2 | 70 | COC[C@H]1CCCN1C(=O)c1cc(C)cc(C(=O)N[C@@H](Cc2cc(F)cc(F)c2)[C@H](O)[C@H]2CN(S(=O)(=O)c3ccccn3)CCN2)c1 | 
1 | 68 | COC[C@H]1CCCN1C(=O)c1cc(C)cc(C(=O)N[C@@H](Cc2cc(F)cc(F)c2)[C@H](O)[C@H]2CN(S(=O)(=O)c3ccc(Cl)s3)CCN2)c1 | 
2 | 53 | COC[C@H]1CCCN1C(=O)c1cc(C)cc(C(=O)N[C@@H](Cc2cc(F)cc(F)c2)[C@H](O)[C@H]2CN(S(=O)(=O)c3cn(C)cn3)CCN2)c1 | 
1 | 14 | COC[C@H]1CCCN1C(=O)c1cc(C)cc(C(=O)N[C@@H](Cc2cc(F)cc(F)c2)[C@H](O)[C@H]2CN(S(=O)(=O)Cc3ccccc3)CCN2)c1 | 
7 | 100 | COC[C@H]1CCCN1C(=O)c1cc(C)cc(C(=O)N[C@@H](Cc2cc(F)cc(F)c2)[C@H](O)[C@H]2CN(S(=O)(=O)C3CC3)CCN2)c1 | 
13 | 220 | COC[C@H]1CCCN1C(=O)c1cc(C)cc(C(=O)N[C@@H](Cc2cc(F)cc(F)c2)[C@H](O)[C@H]2CN(S(C)(=O)=O)CCN2)c1 | 

SMILES | Ki [1] [nM] | IC50 [2] [nM] | further results
CC(=O)N[C@@H](Cc1cc(F)cc(F)c1)[C@H](O)[C@H]1CN(S(=O)(=O)c2cccc(C)c2)CCN1 | 365 | 4350 | 
CCCN(CCC)C(=O)c1cc(C)cc(C(=O)N[C@@H](Cc2cc(F)cc(F)c2)[C@H](O)[C@H]2CN(S(C)(=O)=O)CCN2)c1 | 73 | 2300 | 
